Measured values published in patent publication US11066409B2, “Bicyclic nitrogen-containing heterocyclic derivatives and pharmaceutical composition comprising the same” (Shionogi & Co., Ltd., priority 2016, dated 2021).

Target: human P2X7 receptor (Homo sapiens (Human), UniProt Q99572, R270H)
Assay: Evaluation of a human P2X7 receptor inhibitory activity (Yo-Pro uptake, BzATP stimulation, FLIPR TETRA)
Format: cell-based
Details: 1321N1 cells stably expressing human P2X7 receptor, Yo-Pro fluorescence
Description: Evaluation of a human P2X7 receptor inhibitory activity Stably expressing cell line (1321N1 cell transfected with the human P2X7 receptor gene (GenBank accession number NM_002562.5 including T606C and G952A SNP)) was used. The cells were seeded in a 384-well microtiter plate at a concentration of 8000 cells/well and cultured in the medium (10% fetal bovine serum, 25 mM HEPES, 1% penicillin and streptomycin in DMEM) for one day at 37° C. under 5% carbon dioxide atmosphere. After replacing with 20 μL of the HBSS buffer (20 mM HEPES, 55.6 mM D-glucose, 1× HBSS(−), pH7.4-7.5), 15 μL of 17.3 μM Yo-Pro solution in the HBSS buffer was added. The plate was placed in high-throughput cellular screening system FLIPR TETRA (Molecullar Devices, LLC.) and 15 μL of 130 μM BzATP solution in the HBSS buffer was added. Measurement of fluorescence intensity by FLIPR TETRA was started. After eight minutes, 15 μL of DMSO solutions containing different concentrations of the compound of the present invention as prepared by dilution with the HBSS buffer were dispensed to each well through the built-in automatic dispenser, and the measurement of fluorescence intensity was continued for 20 minutes. The maximum fluorescence intensity without the compound of the present invention is calculated as 0% inhibition and the maximum fluorescence intensity when the reference compound was added is calculated as 100% inhibition. Changing values of fluorescence intensity by the compound of the present invention were calculated by difference between maximum and minimum fluorescence intensity for 20 minutes. Inhibition ratios (%) were calculated from the following equation:
[formula] IC50 was calculated using logistic approximation.
As for IC50 value, value to below 10 nmol/L is represented as “A”, value from 10 nmol/L to below 100 nmol/L is represented as “B”, value from 100 nmol/L to below 500 nmol/L is represented as “C”, and value from 500 nmol/L to below 1 μmol/L is represented as “D”.

human P2X7 receptor, sequence (Q99572 whole entry R270H): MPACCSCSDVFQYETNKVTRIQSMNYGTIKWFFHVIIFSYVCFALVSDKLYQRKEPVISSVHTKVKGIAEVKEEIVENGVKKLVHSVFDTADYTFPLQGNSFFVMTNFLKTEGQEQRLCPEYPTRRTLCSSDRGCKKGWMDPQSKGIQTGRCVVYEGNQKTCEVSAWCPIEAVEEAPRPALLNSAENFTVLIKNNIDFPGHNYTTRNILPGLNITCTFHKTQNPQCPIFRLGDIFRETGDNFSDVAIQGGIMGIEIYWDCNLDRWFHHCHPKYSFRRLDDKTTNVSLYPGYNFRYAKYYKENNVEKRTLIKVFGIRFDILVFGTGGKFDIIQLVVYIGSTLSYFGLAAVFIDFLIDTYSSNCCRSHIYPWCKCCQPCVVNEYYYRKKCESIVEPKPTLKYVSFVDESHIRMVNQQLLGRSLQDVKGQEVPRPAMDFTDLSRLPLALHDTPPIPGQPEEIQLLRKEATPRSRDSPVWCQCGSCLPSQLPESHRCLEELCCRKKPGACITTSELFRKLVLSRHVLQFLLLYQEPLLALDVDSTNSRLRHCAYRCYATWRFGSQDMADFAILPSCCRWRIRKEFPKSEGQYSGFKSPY

Row | SMILES | IC50 (class symbols) [nM] | IC50 [nM]
1 | COc1nc(C)c(Nc2nc(=O)cc3n2C(c2cc(F)cc(F)c2)CC3)cc1F (stereo not shown) [Compound I-0072] | 10 to 100 | 
2 | Cc1cc2c(cc1/N=c1\[nH]c(=O)c(F)c3n1C(c1ccc(F)cc1F)CC3)COC2 (stereo not shown) [Compound I-0073] | 10 to 100 | 
3 | Cc1cc2c(cc1/N=c1\[nH]c(=O)c(F)c3n1C(c1ccc(F)cc1)CC3)COC2 (stereo not shown) [Compound I-0074] | < 10 | 
4 | CCOc1ccc(/N=c2\[nH]c(=O)cc3n2C(c2ccc(F)cc2F)CC3)c(CC)n1 (stereo not shown) [Compound I-0075] | 10 to 100 | 
5 | CCOc1ccc(/N=c2\[nH]c(=O)c(F)c3n2C(c2ccc(F)cc2F)CC3)c(CC)n1 (stereo not shown) [Compound I-0076] | 10 to 100 | 
6 | Cc1cc(OC(F)F)ccc1Nc1nc(=O)cc2n1C(c1ccc(F)cc1)CC2 (stereo not shown) [Compound I-0077] | < 10 | 
7 | COc1cnc(C)c(/N=c2\[nH]c(=O)c(F)c3n2C(c2ccc(F)cc2)CC3)c1 (stereo not shown) [Compound I-0078] | 10 to 100 | 
8 | COc1cnc(C)c(/N=c2\[nH]c(=O)cc3n2C(c2ccc(F)cc2)CC3)c1 (stereo not shown) [Compound I-0079] | 10 to 100 | 
9 | CCOc1ccc(/N=c2\[nH]c(=O)c(F)c3n2C(c2ccc(F)cc2)CC3)c(C)n1 (stereo not shown) [Compound I-0080] | < 10 | 
10 | CCOc1ccc(/N=c2\[nH]c(=O)c(F)c3n2C(c2ccc(F)cc2F)CC3)c(C)n1 (stereo not shown) [Compound I-0081] | 10 to 100 | 
11 | CCOc1nc(C)c(Nc2nc(=O)cc3n2C(c2ccc(F)cc2F)CC3)cc1F (stereo not shown) [Compound I-0082] | 10 to 100 | 
12 | CCOc1nc(C)c(Nc2nc(=O)c(F)c3n2C(c2ccc(F)cc2F)CC3)cc1F (stereo not shown) [Compound I-0083] | 10 to 100 | 
13 | COc1nc(C)c(Nc2nc(=O)cc3n2C(c2ccc(F)cc2F)CC3)cc1F (stereo not shown) [Compound I-0084] | 10 to 100 | 
14 | COc1ccc(Nc2nc(=O)c(Cl)c3n2C(c2cc(F)cc(F)c2)CC3)c(C)n1 (stereo not shown) [Compound I-0085] | 10 to 100 | 
15 | COc1ccc(Nc2nc(=O)c(Br)c3n2C(c2cc(F)cc(F)c2)CC3)c(C)n1 (stereo not shown) [Compound I-0086] | 10 to 100 | 
16 | COc1ccc(Nc2nc(=O)c(C)c3n2C(c2cc(F)cc(F)c2)CC3)c(C)n1 (stereo not shown) [Compound I-0087] | 10 to 100 | 

Row | SMILES | IC50 (class symbols) [nM] | IC50 [nM]
17 | Cc1[nH]c(=O)c(F)cc1Nc1nc(=O)cc2n1C(c1ccc(F)cc1F)CC2 (stereo not shown) [Compound I-0088] | 500 to 1000 | 
18 | COc1ccc(Nc2nc(=O)c(-c3ccccc3)c3n2C(c2cc(F)cc(F)c2)CC3)c(C)n1 (stereo not shown) [Compound I-0089] | 10 to 100 | 
19 | COc1nc(C)c(Nc2nc(=O)cc3n2C(c2cc(F)c(F)c(F)c2)CC3)cc1F (stereo not shown) [Compound I-0090] | 10 to 100 | 
20 | C=Cc1c2n(c(Nc3ccc(OC)nc3C)nc1=O)C(c1cc(F)cc(F)c1)CC2 (stereo not shown) [Compound I-0091] |  | 17
21 | CCc1c2n(c(Nc3ccc(OC)nc3C)nc1=O)C(c1cc(F)cc(F)c1)CC2 (stereo not shown) [Compound I-0092] | 10 to 100 | 
22 | COc1ccc(/N=c2\[nH]c(=O)c(F)c3n2C(c2ccc(F)cc2F)CC3)c(C)n1 (stereo not shown) [Compound I-0093] | 100 to 500 | 
23 | COc1nc(C)c(Nc2nc(=O)cc3n2C(c2ccc(F)c(Cl)c2)CC3)cc1F (stereo not shown) [Compound I-0094] | 10 to 100 | 
24 | COc1ccc(/N=c2\[nH]c(=O)c(F)c3n2C(c2cc(F)cc(F)c2)CC3)c(C)n1 (stereo not shown) [Compound I-0095] | 10 to 100 | 
25 | CCOc1ccc(Nc2nc(=O)c(F)c3n2C(c2cc(F)cc(F)c2)CC3)c(CC)n1 (stereo not shown) [Compound I-0096] | 10 to 100 | 
26 | COc1ccc(Nc2nc(=O)c(F)c3n2C(c2cc(F)cc(F)c2)CC3)c(C)c1 (stereo not shown) [Compound I-0097] | < 10 | 
27 | COc1ccc(C)c(Nc2nc(=O)c(F)c3n2C(c2cc(F)cc(F)c2)CC3)c1 (stereo not shown) [Compound I-0098] | < 10 | 
28 | Cc1nc2cc(C)c(Nc3nc(=O)cc4n3C(c3ccccc3)CN4)cc2s1 (stereo not shown) [Compound I-0100] |  | 12
29 | Cc1nc2cc(C)c(Nc3nc(=O)c(F)c4n3C(c3cc(F)cc(F)c3)CC4)cc2s1 (stereo not shown) [Compound I-0101] | 10 to 100 | 
30 | Cc1nc2cc(C)c(Nc3nc(=O)cc4n3C(c3ccccc3)CN4C)cc2s1 (stereo not shown) [Compound I-0103] | 10 to 100 | 
31 | COc1ccc(Nc2nc(=O)cc3n2C(c2ccccc2)CN3C)c(C)c1 (stereo not shown) [Compound I-0104] | 10 to 100 | 
